The test system of one test is CHO-K1. The test can be described thus: Counterscreen for antagonists of the orexin 1 receptor (OX1R; HCRTR1): Homogeneous time resolved fluorescence (HTRF)-based cell-based dose response assay to identify antagonists of the parental CHO-K1 cell line. [Related pubchem assays (depositor defined):AID434989, AID435008, AID463079, AID485270, AID492963, AID492964, AID492965, AID493232, AID504699, AID504701]. Format: functional. The following applies: Cricetulus griseus.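 Also: potency for inhibition of ATP-stimulated IP1 production as antagonists.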

The target of test [1] is T1, Orexin/Hypocretin receptor type 1 (Homo sapiens, UniProt O43613).
T1 sequence (O43613 whole entry): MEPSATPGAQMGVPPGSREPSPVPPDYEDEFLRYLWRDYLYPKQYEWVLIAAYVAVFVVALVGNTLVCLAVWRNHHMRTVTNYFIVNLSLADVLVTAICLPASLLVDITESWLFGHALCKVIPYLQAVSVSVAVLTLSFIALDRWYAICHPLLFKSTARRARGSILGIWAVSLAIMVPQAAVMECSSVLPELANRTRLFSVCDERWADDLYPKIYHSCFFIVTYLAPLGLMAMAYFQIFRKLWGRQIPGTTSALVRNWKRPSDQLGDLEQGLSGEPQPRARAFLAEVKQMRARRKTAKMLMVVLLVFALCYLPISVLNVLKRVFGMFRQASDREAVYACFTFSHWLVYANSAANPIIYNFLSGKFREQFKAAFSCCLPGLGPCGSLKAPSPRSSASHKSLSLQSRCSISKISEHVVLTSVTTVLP
The test can be described thus: Fluorescence-based cell-based high throughput dose response assay for antagonists of the orexin 1 receptor (OX1R; HCRTR1). [Related pubchem assays (depositor defined):AID434989, AID435008, AID463079, AID485270, AID492963, AID492964, AID492965, AID493232, AID504717, AID504718]. Type of test: functional.

Test [2] has as its target T2, Orexin receptor type 2 (Homo sapiens, UniProt O43614).
T2 sequence (O43614 whole entry): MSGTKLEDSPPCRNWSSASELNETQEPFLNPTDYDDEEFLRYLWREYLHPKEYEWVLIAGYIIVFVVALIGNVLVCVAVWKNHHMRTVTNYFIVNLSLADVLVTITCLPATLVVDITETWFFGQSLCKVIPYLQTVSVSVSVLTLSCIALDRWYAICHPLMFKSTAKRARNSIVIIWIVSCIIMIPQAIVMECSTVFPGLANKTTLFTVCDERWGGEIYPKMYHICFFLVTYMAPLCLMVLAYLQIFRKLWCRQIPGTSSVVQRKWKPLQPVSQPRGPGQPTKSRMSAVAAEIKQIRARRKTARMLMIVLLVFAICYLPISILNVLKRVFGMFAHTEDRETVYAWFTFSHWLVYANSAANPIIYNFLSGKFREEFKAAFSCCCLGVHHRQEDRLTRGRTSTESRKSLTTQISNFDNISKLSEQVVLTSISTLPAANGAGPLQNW
The test can be described thus: Counterscreen assay for antagonists of the orexin 1 receptor (OX1R; HCRTR1): Fluorescence-based cell-based dose response assay for antagonists of the orexin 2 receptor (OX2R; HCRTR2), run by assay provider. Type of test: functional.

Test [3] has as its target T2, Orexin receptor type 2. The test can be described thus: Counterscreen assay for antagonists of the orexin 1 receptor (OX1R; HCRTR1): Homogeneous Time Resolved Fluorescence (HTRF)-based cell-based dose response assay for antagonists of the orexin 2 receptor (OX2R; HCRTR2), run by assay provider. Type of test: functional. (In general: A counterscreen serves to expose hits that act by an unwanted route or on another target.)

Test [4] in a line: Counterscreen for antagonists of the orexin 1 receptor (OX1R; HCRTR1): Fluorescence-based cell-based high throughput dose response assay to identify antagonists of the parental CHO cell line. [Related pubchem assays (depositor defined):AID434989, AID435008, AID463079, AID485270, AID492963, AID492964, AID492965, AID493232, AID504699, AID504701]. Format: functional.
The target in test [5] is T1, Orexin/Hypocretin receptor type 1. The test can be described thus: Homogeneous Time Resolved Fluorescence (HTRF)-based cell-based high throughput dose response assay for antagonists of the orexin 1 receptor (OX1R; HCRTR1). [Related pubchem assays (depositor defined):AID434989, AID435008, AID463079, AID485270, AID492963, AID492964, AID492965, AID493232, AID504717, AID504718]. Format: functional. (Time-resolved FRET reads energy transfer from a long-lived donor to a nearby acceptor.)

Test [6] is described as follows: growth suppression of beta-catenin-knockout colon cells, dose response, cell-based, HCT116, human colon tumor (AID 1045).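 Also: HCT116 colon tumor cells with beta catenin knocked out; cells exposed to compound for 60 hours.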 Type of test: functional.
Test [7] can be described thus: growth suppression of PTEN-null colon cells, dose response, cell-based, HCT116 PTEN knockout (AID 1047).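 Also: HCT116 colon tumor cells with PTEN knocked out; cells exposed to compound for 60 hours before readout; potency for loss of cell viability measured by luminescence.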 Type of test: functional.
For test [8], the target named is T3, Sentrin-specific protease 6 (Homo sapiens, UniProt Q9GZR1).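 Also: Luminescence-based dose-response confirmatory assay of SENP6 inhibition, following up an ultra-high-throughput screen.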
T3 sequence (Q9GZR1 whole entry): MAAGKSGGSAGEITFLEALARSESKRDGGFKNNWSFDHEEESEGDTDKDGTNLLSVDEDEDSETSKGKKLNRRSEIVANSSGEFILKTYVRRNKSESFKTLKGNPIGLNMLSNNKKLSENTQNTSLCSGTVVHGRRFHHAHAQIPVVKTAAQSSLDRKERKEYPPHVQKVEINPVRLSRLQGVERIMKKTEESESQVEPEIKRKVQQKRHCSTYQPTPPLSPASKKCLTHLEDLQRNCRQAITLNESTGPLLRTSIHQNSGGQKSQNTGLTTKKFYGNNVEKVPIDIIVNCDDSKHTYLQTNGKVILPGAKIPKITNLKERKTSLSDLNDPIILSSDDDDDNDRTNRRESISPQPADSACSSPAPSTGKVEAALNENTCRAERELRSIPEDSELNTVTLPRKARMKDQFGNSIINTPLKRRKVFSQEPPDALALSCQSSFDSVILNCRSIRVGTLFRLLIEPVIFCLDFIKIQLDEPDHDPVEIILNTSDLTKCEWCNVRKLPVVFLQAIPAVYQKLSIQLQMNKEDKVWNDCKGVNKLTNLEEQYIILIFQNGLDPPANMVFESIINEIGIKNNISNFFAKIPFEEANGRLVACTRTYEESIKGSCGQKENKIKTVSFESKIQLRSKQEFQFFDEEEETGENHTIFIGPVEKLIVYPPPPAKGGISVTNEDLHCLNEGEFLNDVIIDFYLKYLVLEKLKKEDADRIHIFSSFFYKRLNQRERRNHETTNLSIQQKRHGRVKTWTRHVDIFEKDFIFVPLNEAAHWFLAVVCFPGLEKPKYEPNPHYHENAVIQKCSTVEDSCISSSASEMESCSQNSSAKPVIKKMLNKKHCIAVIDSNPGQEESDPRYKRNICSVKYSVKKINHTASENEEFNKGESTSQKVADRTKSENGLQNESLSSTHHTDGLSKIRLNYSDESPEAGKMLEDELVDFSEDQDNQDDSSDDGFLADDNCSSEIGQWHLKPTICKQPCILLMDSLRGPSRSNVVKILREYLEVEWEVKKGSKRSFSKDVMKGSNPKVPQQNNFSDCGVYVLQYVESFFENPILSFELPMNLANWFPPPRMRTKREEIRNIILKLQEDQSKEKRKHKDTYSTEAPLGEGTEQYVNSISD
Type of test: functional.

The target of test [9] is T4, Sentrin-specific protease 7 (Homo sapiens, UniProt Q9BQF6).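 Also: Luminescence-based dose-response confirmation of ultra-high-throughput screening hits, measuring inhibition of SENP7.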
T4 sequence (Q9BQF6 whole entry): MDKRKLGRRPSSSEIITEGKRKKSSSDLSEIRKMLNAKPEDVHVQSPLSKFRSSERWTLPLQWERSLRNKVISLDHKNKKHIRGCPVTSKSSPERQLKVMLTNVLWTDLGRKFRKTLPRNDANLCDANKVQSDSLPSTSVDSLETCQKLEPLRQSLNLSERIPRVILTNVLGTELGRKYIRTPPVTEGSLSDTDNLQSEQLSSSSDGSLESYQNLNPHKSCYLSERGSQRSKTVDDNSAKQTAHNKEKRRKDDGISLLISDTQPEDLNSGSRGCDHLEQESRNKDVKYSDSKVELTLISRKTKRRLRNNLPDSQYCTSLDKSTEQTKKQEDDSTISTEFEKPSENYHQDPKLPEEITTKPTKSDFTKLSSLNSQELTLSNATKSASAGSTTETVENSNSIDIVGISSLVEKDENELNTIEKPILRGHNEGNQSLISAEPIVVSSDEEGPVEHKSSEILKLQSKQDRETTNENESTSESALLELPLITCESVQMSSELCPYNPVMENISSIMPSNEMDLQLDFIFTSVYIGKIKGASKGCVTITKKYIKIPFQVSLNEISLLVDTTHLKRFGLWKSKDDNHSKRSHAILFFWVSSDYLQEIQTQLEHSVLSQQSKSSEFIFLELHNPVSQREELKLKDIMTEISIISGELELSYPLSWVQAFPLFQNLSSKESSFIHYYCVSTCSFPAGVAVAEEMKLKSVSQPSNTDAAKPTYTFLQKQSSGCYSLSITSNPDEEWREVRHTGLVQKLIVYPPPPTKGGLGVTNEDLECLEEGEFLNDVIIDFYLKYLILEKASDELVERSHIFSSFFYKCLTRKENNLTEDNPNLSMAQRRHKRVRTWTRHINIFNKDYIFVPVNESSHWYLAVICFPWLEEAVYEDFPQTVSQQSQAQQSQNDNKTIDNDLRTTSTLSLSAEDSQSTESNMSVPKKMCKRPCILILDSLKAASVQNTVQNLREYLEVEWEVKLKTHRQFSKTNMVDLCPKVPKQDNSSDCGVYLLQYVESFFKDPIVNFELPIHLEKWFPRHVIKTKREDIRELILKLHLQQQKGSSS
Format: functional.

Test [10] addresses T5, Sentrin-specific protease 8 (Homo sapiens, UniProt Q96LD8).
T5 sequence (Q96LD8 whole entry): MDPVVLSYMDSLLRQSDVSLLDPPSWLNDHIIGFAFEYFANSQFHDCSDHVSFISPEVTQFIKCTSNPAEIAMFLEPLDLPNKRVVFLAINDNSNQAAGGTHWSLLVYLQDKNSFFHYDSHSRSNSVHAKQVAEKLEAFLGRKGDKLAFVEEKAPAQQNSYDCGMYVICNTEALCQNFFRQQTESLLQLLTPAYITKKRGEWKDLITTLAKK
Type of test: functional.

A further test concerns the target T6, Caspase-3 (Homo sapiens, UniProt P42574).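 Also: Dose-response selectivity test against caspase-3 for candidate inhibitors of sentrin-specific proteases (SENPs).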
T6 sequence (P42574 whole entry): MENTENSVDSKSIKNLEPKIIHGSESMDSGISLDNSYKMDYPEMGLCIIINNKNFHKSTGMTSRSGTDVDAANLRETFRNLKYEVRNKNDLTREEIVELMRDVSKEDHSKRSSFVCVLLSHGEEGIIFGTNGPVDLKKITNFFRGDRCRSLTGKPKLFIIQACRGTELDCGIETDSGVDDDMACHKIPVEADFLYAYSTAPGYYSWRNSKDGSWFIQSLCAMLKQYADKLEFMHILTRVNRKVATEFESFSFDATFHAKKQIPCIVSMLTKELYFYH
Format: functional.

The nature of test [11]: Luminescence Cell-Based Dose Confirmation HTS to Identify Inhibitors of Platelet Dense Granule Release. [Related pubchem assays: 1663 (Primary HTS), 1678 (Summary of Project)]. Format: functional.
Test [12] has as its target Luciferin 4-monooxygenase (Photinus pyralis, UniProt P08659). The test can be described thus: firefly luciferase enzyme inhibitors, dose response, biochemical, luminescence (AID 1891).

The record followed here is ChEMBL document CHEMBL1201862, “PubChem BioAssay data set” (2004).

Active and inactive are the calls of the source.

Luciferin 4-monooxygenase, sequence (P08659 whole entry): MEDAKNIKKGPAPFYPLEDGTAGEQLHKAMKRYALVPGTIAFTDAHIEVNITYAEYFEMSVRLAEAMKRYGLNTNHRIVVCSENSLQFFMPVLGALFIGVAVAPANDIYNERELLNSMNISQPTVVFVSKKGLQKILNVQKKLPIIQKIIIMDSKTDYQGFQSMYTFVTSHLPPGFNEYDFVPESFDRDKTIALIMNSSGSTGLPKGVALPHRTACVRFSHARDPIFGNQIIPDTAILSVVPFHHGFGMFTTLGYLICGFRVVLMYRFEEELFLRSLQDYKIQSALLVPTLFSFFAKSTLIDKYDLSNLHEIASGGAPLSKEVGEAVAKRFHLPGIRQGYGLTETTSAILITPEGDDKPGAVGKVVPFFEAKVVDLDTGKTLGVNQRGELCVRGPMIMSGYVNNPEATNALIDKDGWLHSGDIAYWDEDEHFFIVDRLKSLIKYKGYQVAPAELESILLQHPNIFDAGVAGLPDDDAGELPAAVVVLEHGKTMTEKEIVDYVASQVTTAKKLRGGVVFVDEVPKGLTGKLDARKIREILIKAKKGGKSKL

Broadly, the IC50 is the midpoint of a concentration-inhibition curve. `Cc1noc(C)c1S(=O)(=O)Nc1ccc(O)c2c(=O)cc(-c3ccccc3Cl)oc12`: the IC50 with CHO-K1 is > 66.2 µM (inactive); in test [1], 23.6 µM (inactive); at Orexin receptor type 2 [2] it was 16.8 µM (inactive); at Orexin receptor type 2 [3], 5.63 µM (active); in test [4], > 49.7 µM (inactive); in [5], 0.151 µM (active).

As for `CCn1c2ccccc2c2nc3ccccc3nc21`, the IC50 in the test with CHO-K1 was > 66.3 µM (inactive); in [1], 6.2 µM (active); at Orexin receptor type 2 [2] it was 35.2 µM (inactive); on Orexin receptor type 2 [3], 6.65 µM (active); in [4], > 49.8 µM (inactive); in test [5], 0.914 µM (active).

As usually defined, the EC50 is the concentration giving half of the maximal effect. For the compound `CC(NS(=O)(=O)c1ccc(OCC(=O)Nc2cccc([N+](=O)[O-])c2)cc1)c1ccccc1` (stereo not given), the IC50 in the test on CHO-K1 was > 66.2 µM (inactive); in test [1], 13.6 µM (inactive); on Orexin receptor type 2 [2], > 88.8 µM (inactive); on Orexin receptor type 2 [3] it was > 50 µM (inactive); in test [4], > 49.8 µM (inactive); in [5] it was 0.688 µM (active). The figures for the concentration for a half-maximal effect (EC50) in [6] and in [7] were 18.2 µM (active) and 18.4 µM (active), respectively.

Regarding `Cc1cc(-c2csc(Nc3ccccn3)n2)ccc1F`, the IC50 in test [8] is 12.5 µM (active); in [9], 3.53 µM (active); in [10], 19.2 µM (active); on Caspase-3, 26 µM (active).

Regarding `CCN(C(=O)CO/N=C/c1ccc(OC)cc1OC)c1c(N)n(Cc2ccccc2)c(=O)[nH]c1=O`, the IC50 in the test with CHO-K1 was > 66.2 µM (inactive); in test [1] it was 5.93 µM (active); on Orexin receptor type 2 [2] it was 29 µM (inactive); at Orexin receptor type 2 [3] it was 1.77 µM (active); in test [4] it was > 49.7 µM (inactive); in test [5], 0.317 µM (active).

For `O=C1/C(=C/c2ccc([N+](=O)[O-])cc2)CCc2ccccc21`, the concentration for a half-maximal effect (EC50) in [11] was 1.11 µM (active); in test [12], 0.404 µM (active). Also, the IC50 in test [8] is 0.789 µM (active); in test [9], 0.696 µM (active); in test [10], 1.13 µM (active); on Caspase-3 it was 5.9 µM (active).

In the case of `O=c1cc(-c2ccc(O)cc2)oc2ccc(O)cc12`, the 50% inhibitory concentration (IC50) in [8] was 87.7 µM (active); in test [9], 9.8 µM (active); in [10], 11.6 µM (active); on Caspase-3, 16.8 µM (active).
